Data on six compounds can be found in ChEMBL document CHEMBL4052776, “Discovery of 3-morpholino-imidazole[1,5-a]pyrazine BTK inhibitors for rheumatoid arthritis” (Bioorg Med Chem Lett, 2017).

Test [1] concerns the target T1, Tyrosine-protein kinase BTK (Homo sapiens, UniProt Q06187). Kind of test: Inhibition of BTK in human PBMC assessed as reduction in anti-IgM-induced MIP1beta.
Test [2] is filed under the species Homo sapiens. Kind of test: Selectivity ratio of IC50 for BLK (unknown origin) to IC50 for BTK (unknown origin).
For test [3], the target named is Protein-tyrosine kinase 6 (Homo sapiens, UniProt Q13882). Kind of test: Inhibition of PTK6 (unknown origin).
Chain of Protein-tyrosine kinase 6 (Q13882 whole entry): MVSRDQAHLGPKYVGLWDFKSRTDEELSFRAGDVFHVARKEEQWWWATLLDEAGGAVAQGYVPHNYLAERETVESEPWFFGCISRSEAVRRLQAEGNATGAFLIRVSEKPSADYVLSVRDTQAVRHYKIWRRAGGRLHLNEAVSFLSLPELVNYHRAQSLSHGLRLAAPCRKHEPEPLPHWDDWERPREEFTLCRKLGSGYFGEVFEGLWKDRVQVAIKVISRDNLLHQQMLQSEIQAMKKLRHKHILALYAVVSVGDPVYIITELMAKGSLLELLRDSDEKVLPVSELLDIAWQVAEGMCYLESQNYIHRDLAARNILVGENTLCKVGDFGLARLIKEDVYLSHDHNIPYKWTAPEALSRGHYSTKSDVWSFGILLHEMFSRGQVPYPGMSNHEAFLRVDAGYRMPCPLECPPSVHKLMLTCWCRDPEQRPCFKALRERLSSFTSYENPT
For test [4], the species on record is Homo sapiens. In words: Selectivity ratio of IC50 for FYN (unknown origin) to IC50 for BTK (unknown origin).
The target of test [5] is Proto-oncogene tyrosine-protein kinase Src (Homo sapiens, UniProt P12931). In words: Inhibition of SRC (unknown origin).
Test [6] deals with T1, Tyrosine-protein kinase BTK. In words: Inhibition of recombinant full-length His6-tagged BTK (unknown origin) expressed in baculovirus infected Sf9 cells using biotinylated A5 peptide as substrate preincubated for 60 mins followed by substrate addition measured after 120 mins by LANCE TR-FRET assay. (Time-resolved FRET reads energy transfer from a long-lived donor to a nearby acceptor.)

In test [7] the target is Tyrosine-protein kinase Yes (Homo sapiens, UniProt P07947). In words: Inhibition of YES1 (unknown origin).
The target in test [8] is Voltage-gated inwardly rectifying potassium channel KCNH2 (Homo sapiens, UniProt Q12809). Kind of test: Inhibition of human ERG by [35S]-MK499 displacement or iKr channel assay.
Chain of Voltage-gated inwardly rectifying potassium channel KCNH2 (Q12809 whole entry): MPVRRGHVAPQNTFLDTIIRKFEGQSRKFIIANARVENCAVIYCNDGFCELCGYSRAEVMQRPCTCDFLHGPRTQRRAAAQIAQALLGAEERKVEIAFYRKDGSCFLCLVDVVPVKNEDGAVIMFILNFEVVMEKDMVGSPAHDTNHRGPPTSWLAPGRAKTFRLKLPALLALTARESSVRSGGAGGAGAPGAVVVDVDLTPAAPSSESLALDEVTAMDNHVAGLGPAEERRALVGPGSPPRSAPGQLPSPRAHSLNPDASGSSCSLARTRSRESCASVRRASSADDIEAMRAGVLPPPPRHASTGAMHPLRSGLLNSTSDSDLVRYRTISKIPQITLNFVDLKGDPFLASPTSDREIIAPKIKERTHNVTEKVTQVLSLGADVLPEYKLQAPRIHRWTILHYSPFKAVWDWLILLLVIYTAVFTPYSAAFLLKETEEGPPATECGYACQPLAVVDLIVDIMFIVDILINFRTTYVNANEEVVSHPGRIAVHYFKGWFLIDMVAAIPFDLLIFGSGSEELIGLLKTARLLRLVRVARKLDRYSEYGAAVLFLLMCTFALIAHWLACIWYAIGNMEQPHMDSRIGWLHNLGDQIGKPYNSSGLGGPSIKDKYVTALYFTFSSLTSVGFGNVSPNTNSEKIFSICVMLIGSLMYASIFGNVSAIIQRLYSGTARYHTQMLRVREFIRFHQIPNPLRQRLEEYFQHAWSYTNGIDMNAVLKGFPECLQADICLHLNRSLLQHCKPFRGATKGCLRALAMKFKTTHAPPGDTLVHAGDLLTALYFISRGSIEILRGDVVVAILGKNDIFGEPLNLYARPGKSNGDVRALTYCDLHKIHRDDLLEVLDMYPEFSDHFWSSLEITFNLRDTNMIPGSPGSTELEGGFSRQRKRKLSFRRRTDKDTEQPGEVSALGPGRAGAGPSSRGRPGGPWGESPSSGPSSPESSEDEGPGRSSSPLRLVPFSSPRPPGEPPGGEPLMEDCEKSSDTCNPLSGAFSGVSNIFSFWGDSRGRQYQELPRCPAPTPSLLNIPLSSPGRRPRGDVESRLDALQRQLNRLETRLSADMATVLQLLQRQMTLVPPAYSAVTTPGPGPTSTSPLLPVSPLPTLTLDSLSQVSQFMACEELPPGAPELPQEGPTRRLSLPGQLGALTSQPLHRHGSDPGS
Test [9] is filed under the species Homo sapiens. Kind of test: Selectivity ratio of IC50 for CSK (unknown origin) to IC50 for BTK (unknown origin).
The species named for test [10] is Homo sapiens. In words: Selectivity ratio of IC50 for LYNB (unknown origin) to IC50 for BTK (unknown origin).
Test [11] addresses Receptor tyrosine-protein kinase erbB-4 (Homo sapiens, UniProt Q15303). In words: Inhibition of ERBB4 (unknown origin).
For test [12], the species on record is Homo sapiens. Kind of test: Selectivity ratio of IC50 for SRMS (unknown origin) to IC50 for BTK (unknown origin).
The target of test [13] is T2, Tyrosine-protein kinase TXK (Homo sapiens, UniProt P42681).
T2 sequence (P42681 whole entry): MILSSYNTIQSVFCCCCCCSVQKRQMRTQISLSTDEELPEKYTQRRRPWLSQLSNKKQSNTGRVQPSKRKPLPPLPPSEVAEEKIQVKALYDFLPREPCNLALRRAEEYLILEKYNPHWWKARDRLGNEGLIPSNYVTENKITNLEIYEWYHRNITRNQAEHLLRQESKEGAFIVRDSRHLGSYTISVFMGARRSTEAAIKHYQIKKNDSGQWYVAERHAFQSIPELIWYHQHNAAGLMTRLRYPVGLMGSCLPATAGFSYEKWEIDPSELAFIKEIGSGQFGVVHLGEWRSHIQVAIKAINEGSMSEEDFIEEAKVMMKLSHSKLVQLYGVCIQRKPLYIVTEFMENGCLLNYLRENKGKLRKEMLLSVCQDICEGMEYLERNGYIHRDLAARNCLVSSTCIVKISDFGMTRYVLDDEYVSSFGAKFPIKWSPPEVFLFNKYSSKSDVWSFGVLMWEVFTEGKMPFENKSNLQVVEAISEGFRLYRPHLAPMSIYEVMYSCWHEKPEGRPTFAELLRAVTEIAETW
In words: Inhibition of TXK (unknown origin).

Test [14] addresses Tyrosine-protein kinase Fgr (Homo sapiens, UniProt P09769). In words: Inhibition of FGR (unknown origin).
For test [15], the species on record is Homo sapiens. In words: Selectivity ratio of IC50 for PTK6 (unknown origin) to IC50 for BTK (unknown origin).
Test [16] has as its target Tyrosine-protein kinase CSK (Homo sapiens, UniProt P41240). Kind of test: Inhibition of CSK (unknown origin).
The target in test [17] is Tyrosine-protein kinase Blk (Homo sapiens, UniProt P51451). In words: Inhibition of BLK (unknown origin).
Chain of Tyrosine-protein kinase Blk (P51451 whole entry): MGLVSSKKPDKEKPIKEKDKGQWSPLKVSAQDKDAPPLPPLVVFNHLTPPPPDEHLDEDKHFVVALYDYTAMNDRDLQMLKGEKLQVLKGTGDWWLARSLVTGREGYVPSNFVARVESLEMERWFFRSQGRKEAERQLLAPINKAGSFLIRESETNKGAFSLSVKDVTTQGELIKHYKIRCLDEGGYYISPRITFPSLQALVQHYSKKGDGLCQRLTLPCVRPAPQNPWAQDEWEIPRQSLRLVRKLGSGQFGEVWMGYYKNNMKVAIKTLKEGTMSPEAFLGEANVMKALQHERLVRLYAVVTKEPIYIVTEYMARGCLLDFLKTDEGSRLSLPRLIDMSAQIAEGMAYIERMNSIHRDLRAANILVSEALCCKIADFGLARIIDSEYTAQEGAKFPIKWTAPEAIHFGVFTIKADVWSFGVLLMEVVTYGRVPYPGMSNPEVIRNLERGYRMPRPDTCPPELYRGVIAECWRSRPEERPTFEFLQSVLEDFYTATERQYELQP
For test [18], the species on record is Homo sapiens. Kind of test: Selectivity ratio of IC50 for SRC (unknown origin) to IC50 for BTK (unknown origin).
For test [19], the species on record is Homo sapiens. In words: Selectivity ratio of IC50 for BMX (unknown origin) to IC50 for BTK (unknown origin).
The species entered for test [20] is Homo sapiens. Kind of test: Selectivity ratio of IC50 for FRK (unknown origin) to IC50 for BTK (unknown origin).
Test [21] addresses Tyrosine-protein kinase Srms (Homo sapiens, UniProt Q9H3Y6). Kind of test: Inhibition of SRMS (unknown origin).
Test [22] is filed under the species Homo sapiens. In words: Selectivity ratio of IC50 for TXK (unknown origin) to IC50 for BTK (unknown origin).
The species entered for test [23] is Homo sapiens. In words: Selectivity ratio of IC50 for YES1 (unknown origin) to IC50 for BTK (unknown origin).
For test [24], the target named is Tyrosine-protein kinase Fyn (Homo sapiens, UniProt P06241). Kind of test: Inhibition of FYN (unknown origin).
The target in test [25] is T3, Cytoplasmic tyrosine-protein kinase BMX (Homo sapiens, UniProt P51813).
T3 sequence (P51813 whole entry): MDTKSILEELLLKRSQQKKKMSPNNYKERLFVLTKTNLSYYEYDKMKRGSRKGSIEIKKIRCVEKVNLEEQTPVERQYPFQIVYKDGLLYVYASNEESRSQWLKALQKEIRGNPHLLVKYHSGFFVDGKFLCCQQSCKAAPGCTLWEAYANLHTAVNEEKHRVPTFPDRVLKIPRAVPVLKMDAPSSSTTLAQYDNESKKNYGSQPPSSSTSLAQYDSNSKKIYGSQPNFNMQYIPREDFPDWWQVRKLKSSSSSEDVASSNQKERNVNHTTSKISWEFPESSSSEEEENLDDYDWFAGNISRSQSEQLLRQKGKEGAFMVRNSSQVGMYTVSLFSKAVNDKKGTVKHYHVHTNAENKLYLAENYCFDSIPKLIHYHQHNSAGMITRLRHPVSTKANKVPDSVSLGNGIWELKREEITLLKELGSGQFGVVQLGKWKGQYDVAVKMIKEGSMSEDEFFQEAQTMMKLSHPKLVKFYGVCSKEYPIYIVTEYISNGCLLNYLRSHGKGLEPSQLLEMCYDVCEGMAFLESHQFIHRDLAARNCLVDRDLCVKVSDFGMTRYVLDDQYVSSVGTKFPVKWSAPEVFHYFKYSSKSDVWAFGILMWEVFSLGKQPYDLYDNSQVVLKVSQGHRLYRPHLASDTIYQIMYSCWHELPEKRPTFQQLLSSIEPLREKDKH
Kind of test: Inhibition of BMX (unknown origin).

For test [26], the target named is Tyrosine-protein kinase FRK (Homo sapiens, UniProt P42685). Kind of test: Inhibition of FRK (unknown origin).
The species entered for test [27] is Homo sapiens. In words: Selectivity ratio of IC50 for LCK (unknown origin) to IC50 for BTK (unknown origin).
The species named for test [28] is Homo sapiens. Kind of test: Selectivity ratio of IC50 for TEC (unknown origin) to IC50 for BTK (unknown origin).
The target of test [29] is T4, Tyrosine-protein kinase Tec (Homo sapiens, UniProt P42680).
T4 sequence (P42680 whole entry): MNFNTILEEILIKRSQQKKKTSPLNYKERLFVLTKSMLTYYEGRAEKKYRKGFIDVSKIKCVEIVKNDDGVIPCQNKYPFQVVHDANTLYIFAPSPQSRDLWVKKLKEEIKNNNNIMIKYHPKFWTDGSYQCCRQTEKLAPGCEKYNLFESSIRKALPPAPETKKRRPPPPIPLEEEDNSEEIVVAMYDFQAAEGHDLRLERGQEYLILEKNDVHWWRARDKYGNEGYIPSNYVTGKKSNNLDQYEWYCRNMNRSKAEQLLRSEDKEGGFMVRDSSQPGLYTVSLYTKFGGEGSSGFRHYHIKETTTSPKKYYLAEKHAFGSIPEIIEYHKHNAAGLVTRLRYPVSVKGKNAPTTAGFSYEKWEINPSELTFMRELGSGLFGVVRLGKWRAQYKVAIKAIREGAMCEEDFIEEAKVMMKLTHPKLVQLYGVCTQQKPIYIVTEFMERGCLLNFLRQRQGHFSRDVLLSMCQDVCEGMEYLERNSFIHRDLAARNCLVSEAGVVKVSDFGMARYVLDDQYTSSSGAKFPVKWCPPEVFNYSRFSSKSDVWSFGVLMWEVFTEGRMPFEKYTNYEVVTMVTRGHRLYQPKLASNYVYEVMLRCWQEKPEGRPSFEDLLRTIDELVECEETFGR
In words: Inhibition of TEC (unknown origin).

Test [30] deals with Tyrosine-protein kinase Lyn (Homo sapiens, UniProt P07948). In words: Inhibition of LYNB (unknown origin).
Chain of Tyrosine-protein kinase Lyn (P07948 whole entry): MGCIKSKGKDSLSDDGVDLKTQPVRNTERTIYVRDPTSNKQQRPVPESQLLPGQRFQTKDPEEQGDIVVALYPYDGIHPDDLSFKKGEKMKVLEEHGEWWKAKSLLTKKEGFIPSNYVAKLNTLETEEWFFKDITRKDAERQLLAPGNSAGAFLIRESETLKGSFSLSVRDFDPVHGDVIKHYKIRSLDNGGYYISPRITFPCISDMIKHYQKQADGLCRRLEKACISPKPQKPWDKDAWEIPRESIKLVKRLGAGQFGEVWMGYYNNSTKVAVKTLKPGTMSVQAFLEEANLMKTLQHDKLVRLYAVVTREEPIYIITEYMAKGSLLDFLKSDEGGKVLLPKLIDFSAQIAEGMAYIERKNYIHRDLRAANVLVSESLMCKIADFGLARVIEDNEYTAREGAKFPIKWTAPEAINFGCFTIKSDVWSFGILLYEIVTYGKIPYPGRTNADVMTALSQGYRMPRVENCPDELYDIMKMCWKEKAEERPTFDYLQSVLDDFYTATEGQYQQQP
For test [31], the species on record is Homo sapiens. Kind of test: Selectivity ratio of IC50 for ERBB4 (unknown origin) to IC50 for BTK (unknown origin).
Test [32] addresses Tyrosine-protein kinase Lck (Homo sapiens, UniProt P06239). Kind of test: Inhibition of LCK (unknown origin).
The species entered for test [33] is Homo sapiens. In words: Selectivity ratio of IC50 for FGR (unknown origin) to IC50 for BTK (unknown origin).

Chain of Tyrosine-protein kinase Fgr (P09769 whole entry): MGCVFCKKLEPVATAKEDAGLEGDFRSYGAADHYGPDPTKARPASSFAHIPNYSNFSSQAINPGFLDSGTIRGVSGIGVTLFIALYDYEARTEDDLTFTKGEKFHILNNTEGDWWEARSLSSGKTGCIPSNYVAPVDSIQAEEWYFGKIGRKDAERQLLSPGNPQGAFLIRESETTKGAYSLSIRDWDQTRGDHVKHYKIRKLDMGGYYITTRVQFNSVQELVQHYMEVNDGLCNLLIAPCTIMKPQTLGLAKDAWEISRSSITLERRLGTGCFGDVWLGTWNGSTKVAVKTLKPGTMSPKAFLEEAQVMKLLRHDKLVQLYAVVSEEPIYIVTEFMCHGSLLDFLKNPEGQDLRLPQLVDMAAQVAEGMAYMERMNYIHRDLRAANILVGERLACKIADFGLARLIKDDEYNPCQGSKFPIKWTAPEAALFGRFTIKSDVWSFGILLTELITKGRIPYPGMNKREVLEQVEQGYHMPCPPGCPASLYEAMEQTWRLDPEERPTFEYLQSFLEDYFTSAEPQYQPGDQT
Chain of Tyrosine-protein kinase Srms (Q9H3Y6 whole entry): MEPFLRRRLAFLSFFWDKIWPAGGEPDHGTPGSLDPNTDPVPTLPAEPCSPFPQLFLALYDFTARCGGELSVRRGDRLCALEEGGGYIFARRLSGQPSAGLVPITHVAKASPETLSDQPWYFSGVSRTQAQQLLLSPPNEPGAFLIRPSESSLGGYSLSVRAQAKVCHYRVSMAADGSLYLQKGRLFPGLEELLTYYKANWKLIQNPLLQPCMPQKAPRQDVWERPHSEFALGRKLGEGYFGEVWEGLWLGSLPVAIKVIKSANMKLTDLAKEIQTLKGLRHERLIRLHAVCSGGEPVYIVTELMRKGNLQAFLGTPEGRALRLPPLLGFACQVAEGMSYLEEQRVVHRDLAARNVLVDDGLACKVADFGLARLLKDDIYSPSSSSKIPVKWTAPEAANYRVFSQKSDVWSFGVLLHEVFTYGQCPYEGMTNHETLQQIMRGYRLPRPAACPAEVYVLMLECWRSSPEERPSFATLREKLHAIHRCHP
Chain of Receptor tyrosine-protein kinase erbB-4 (Q15303 whole entry): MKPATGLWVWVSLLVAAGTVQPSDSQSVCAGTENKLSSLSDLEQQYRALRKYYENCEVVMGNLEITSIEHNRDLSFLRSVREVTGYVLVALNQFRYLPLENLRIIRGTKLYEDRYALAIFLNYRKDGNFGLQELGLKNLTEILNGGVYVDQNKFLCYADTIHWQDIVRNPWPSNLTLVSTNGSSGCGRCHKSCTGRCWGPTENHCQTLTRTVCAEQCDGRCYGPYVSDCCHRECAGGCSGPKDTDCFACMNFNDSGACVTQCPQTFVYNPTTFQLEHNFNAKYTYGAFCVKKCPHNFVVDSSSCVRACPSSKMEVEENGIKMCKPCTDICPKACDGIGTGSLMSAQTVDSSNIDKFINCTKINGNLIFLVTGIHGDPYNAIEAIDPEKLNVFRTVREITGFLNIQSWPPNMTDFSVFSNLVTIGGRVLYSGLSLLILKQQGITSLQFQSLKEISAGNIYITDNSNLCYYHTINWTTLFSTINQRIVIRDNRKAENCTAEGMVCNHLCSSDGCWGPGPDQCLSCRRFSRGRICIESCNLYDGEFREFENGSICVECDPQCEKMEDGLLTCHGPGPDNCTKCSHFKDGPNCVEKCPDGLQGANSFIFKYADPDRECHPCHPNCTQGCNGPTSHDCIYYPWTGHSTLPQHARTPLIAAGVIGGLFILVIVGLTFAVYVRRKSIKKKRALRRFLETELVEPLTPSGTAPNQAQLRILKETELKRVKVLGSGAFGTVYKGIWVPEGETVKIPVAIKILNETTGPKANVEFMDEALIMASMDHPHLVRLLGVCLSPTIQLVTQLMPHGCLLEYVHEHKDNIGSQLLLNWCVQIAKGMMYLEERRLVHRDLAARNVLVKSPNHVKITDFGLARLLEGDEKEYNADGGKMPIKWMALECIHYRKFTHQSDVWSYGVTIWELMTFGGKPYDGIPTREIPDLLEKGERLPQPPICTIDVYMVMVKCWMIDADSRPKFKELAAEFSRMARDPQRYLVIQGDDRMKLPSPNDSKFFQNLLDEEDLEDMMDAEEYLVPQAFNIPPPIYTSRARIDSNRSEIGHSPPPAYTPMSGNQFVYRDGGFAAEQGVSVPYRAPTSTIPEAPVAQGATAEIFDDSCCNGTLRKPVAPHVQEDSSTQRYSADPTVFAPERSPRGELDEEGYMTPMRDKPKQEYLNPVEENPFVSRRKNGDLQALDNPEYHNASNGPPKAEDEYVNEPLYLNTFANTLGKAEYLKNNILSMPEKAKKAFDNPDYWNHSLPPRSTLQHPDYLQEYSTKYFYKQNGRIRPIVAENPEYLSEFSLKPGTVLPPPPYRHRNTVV

With `Nc1nccn2c([C@@H]3CCCN(C4CCOCC4)C3)nc(-c3ccc(C(=O)Nc4cc(C(F)(F)F)ccn4)cc3F)c12`, the IC50 was 65 nM in test [1]; 48 nM in [3]; 77 nM in test [5]; 0.8 to 0.83 nM in test [6]; 32 nM in test [7]; 100 nM in [8]. The IC50 in test [11] came to 59 nM; in test [13] it was 231 nM; in test [14], 22 nM; in [16] it was 455 nM; in test [17], 29 nM; in test [21], 50 nM. Besides, the 50% inhibitory concentration (IC50) was 105 nM in test [24]; 127 nM in test [25]; 85 nM in [26]; 170 nM in [29]; 115 nM in test [30]; 7 nM in test [32]. The Ratio IC50 in the test filed under Homo sapiens [2] was determined as 35; in the test listed under Homo sapiens [4], 127; in the test filed under Homo sapiens [9], 548; in the test listed under Homo sapiens [10], 138; in the test listed under Homo sapiens [12], 60; in the test filed under Homo sapiens [15], 58. Besides, the Ratio IC50 in the test filed under Homo sapiens [18] came out at 93; in the test listed under Homo sapiens [19], 153; in the test filed under Homo sapiens [20], 102; in the test listed under Homo sapiens [22], 278; in the test listed under Homo sapiens [23], 38; in the test listed under Homo sapiens [27], 9. For the same compound, the Ratio IC50 in the test listed under Homo sapiens [28] worked out at 205; in the test listed under Homo sapiens [31] it was 71; in the test listed under Homo sapiens [33] it was 26.

In the case of `CC(C)C(=O)N1CCC[C@@H](c2nc(-c3ccc(C(=O)Nc4cc(C(F)(F)F)ccn4)cc3F)c3c(N)nccn23)C1`, the concentration for half-maximal inhibition (IC50) is 5 nM in test [1]; 350 nM in test [3]; 265 nM in test [5]; 0.25 to 0.3 nM in test [6]; 189 nM in test [7]; 230 nM in [11]. Also, the IC50 in [13] amounted to 132 nM; in [14], 203 nM; in test [16] it was 1150 nM; in [17], 53 nM; in test [21], 84 nM; in test [24], 894 nM. In addition, the IC50 came to 83 nM in test [25]; 472 nM in test [26]; 378 nM in test [29]; 646 nM in [30]; 74 nM in [32].

Compound `CC1(C(=O)N2CC[C@@H](c3nc(-c4ccc(C(=O)Nc5cc(C(F)(F)F)ccn5)cc4)c4c(N)nccn34)C2)COC1` displayed an IC50 in test [8] of 2500 nM.

In the case of `COCC(=O)N1CCC[C@@H](c2nc(-c3ccc(C(=O)Nc4cc(C(F)(F)F)ccn4)cc3F)c3c(N)nccn23)C1`, the IC50 was 13 nM in [1]; 60 nM in test [3]; 55 nM in test [5]; 0.2 to 0.22 nM in test [6]; 37 nM in test [7]; 4500 nM in [8]. Further, the IC50 in [11] amounted to 71 nM; in test [13], 45 nM; in test [14], 28 nM; in test [16], 261 nM; in [17] it was 9 nM; in test [21] it was 19 nM. For the same compound, the IC50 in test [24] turned out to be 188 nM; in [25], 20 nM; in test [26] it was 151 nM; in [29], 63 nM; in test [30] it was 74 nM; in test [32], 11 nM. Further, the Ratio IC50 in the test filed under Homo sapiens [2] was determined as 39; in the test filed under Homo sapiens [4], 853; in the test filed under Homo sapiens [9] it was 1180; in the test listed under Homo sapiens [10] it was 335; in the test filed under Homo sapiens [12], 86; in the test filed under Homo sapiens [15] it was 273. Besides, the Ratio IC50 stood at 251 in the test listed under Homo sapiens [18]; 93 in the test filed under Homo sapiens [19]; 687 in the test listed under Homo sapiens [20]; 203 in the test filed under Homo sapiens [22]; 167 in the test filed under Homo sapiens [23]; 51 in the test filed under Homo sapiens [27]. Also, the Ratio IC50 in the test filed under Homo sapiens [28] came out at 287; in the test filed under Homo sapiens [31], 322; in the test listed under Homo sapiens [33], 127.

`CC1(C(=O)N2CCO[C@@H](c3nc(-c4ccc(C(=O)Nc5cc(C(F)(F)F)ccn5)cc4F)c4c(N)nccn34)C2)CCC1` yielded a concentration for half-maximal inhibition (IC50) in test [8] of 14000 nM.

As for `CC(=O)N1CCC[C@@H](c2nc(-c3ccc(C(=O)Nc4cc(C(F)(F)F)ccn4)cc3F)c3c(N)nccn23)C1`, the IC50 in [8] was determined as 2400 nM.

In general, IC50 refers to the concentration that inhibits the measured activity by half.
